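In this assay, cells in 96-well plates receive the compound at five concentrations for 48 hours. Endpoints are linearly interpolated between the surrounding concentrations. Abbreviation: GI50, concentration required for 50% inhibition of growth.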 Activity calls are given as the source filed them. Rule as the data show it: active = GI50 up to about 1.1 µM and inactive = higher.
How the values were obtained:
Assay in all cases: growth of human tumour cells (NCI), 48 h
K562 = tested on: K562
U-251 = tested on: U-251
A498 = tested on: A498
SK-MEL-2 = tested on: SK-MEL-2
M14 = tested on: M14
Malme-3M = tested on: Malme-3M
CAKI-1 = tested on: CAKI-1
OVCAR-4 = tested on: OVCAR-4
DU-145 = tested on: DU-145
LOX IMVI = tested on: LOX IMVI
HOP-92 = tested on: HOP-92
SK-MEL-5 = tested on: SK-MEL-5
HL-60 = tested on: HL-60
UO-31 = tested on: UO-31
ACHN = tested on: ACHN
SR = tested on: SR
MDA-N = tested on: MDA-N
RPMI-8226 = tested on: RPMI-8226
HOP-62 = tested on: HOP-62
SF-268 = tested on: SF-268

Measured: GI50

COC(=O)C1CCC(=O)N1C(c1ccccc1)c1ccc(OC)c(OC)c1 (stereo not given)
inactive: K562 > 100 µM | U-251 > 100 µM | A498 > 100 µM | SK-MEL-2 > 100 µM | M14 > 100 µM | Malme-3M > 100 µM | CAKI-1 > 100 µM | OVCAR-4 > 100 µM | DU-145 > 100 µM | LOX IMVI > 100 µM | HOP-92 > 100 µM | SK-MEL-5 > 100 µM | HL-60 > 100 µM | UO-31 > 100 µM | ACHN > 100 µM | SR > 100 µM | MDA-N > 100 µM | RPMI-8226 > 100 µM | HOP-62 > 100 µM | SF-268 > 100 µM

O=C1C2=Cc3ccccc3CCN2c2ccccc21
inactive: K562 12.7 µM | U-251 > 31.6 µM | A498 16.3 µM | SK-MEL-2 21 µM | M14 16.1 µM | Malme-3M 26.3 µM | CAKI-1 19.1 µM | OVCAR-4 33.7 µM | DU-145 > 75.3 µM | LOX IMVI 17.3 µM | HOP-92 28.8 µM | SK-MEL-5 17.3 µM | HL-60 18.9 µM | UO-31 42.8 µM | ACHN 17.3 µM | SR 14.9 µM | MDA-N > 10 µM | RPMI-8226 13.5 µM | HOP-62 > 63.8 µM | SF-268 > 50.8 µM

CC(=O)C1=C(c2ccccc2)N(C2OC(CO)C(O)C(O)C2O)C(S)=C(C#N)C1c1ccc(Cl)cc1 (stereo not given)
inactive: K562 32.7 µM | U-251 17.9 µM | A498 38.6 µM | SK-MEL-2 12.9 µM | M14 21 µM | Malme-3M 24.8 µM | CAKI-1 29 µM | OVCAR-4 29.6 µM | DU-145 44.8 µM | LOX IMVI 18.5 µM | HOP-92 19.7 µM | SK-MEL-5 19.6 µM | HL-60 42.4 µM | UO-31 28.8 µM | ACHN 29.7 µM | SR 29.1 µM | MDA-N 25.8 µM | RPMI-8226 29.9 µM | HOP-62 30.2 µM | SF-268 24.8 µM

O=C1CCCC2=C(N1)C(=O)C=CC2=O
inactive: K562 6.73 µM | U-251 43.8 µM | A498 43.3 µM | SK-MEL-2 44 µM | M14 39.8 µM | Malme-3M 39.4 µM | CAKI-1 32.5 µM | OVCAR-4 45.7 µM | DU-145 17.5 µM | LOX IMVI > 53.5 µM | HOP-92 22.2 µM | SK-MEL-5 42.1 µM | HL-60 8.61 µM | UO-31 43.7 µM | ACHN 40.6 µM | SR 24.4 µM | MDA-N 16.8 µM | RPMI-8226 23.9 µM | HOP-62 44.4 µM | SF-268 46.2 µM

O=[N+]([O-])c1ccc2[nH]c(=S)[nH]c(=S)c2c1
inactive: K562 > 100 µM | U-251 > 100 µM | A498 > 100 µM | SK-MEL-2 > 100 µM | M14 > 100 µM | Malme-3M > 100 µM | CAKI-1 > 100 µM | OVCAR-4 > 100 µM | DU-145 > 100 µM | LOX IMVI > 100 µM | HOP-92 > 100 µM | SK-MEL-5 > 100 µM | HL-60 > 100 µM | UO-31 > 100 µM | ACHN > 100 µM | SR > 100 µM | MDA-N > 100 µM | RPMI-8226 > 100 µM | HOP-62 > 100 µM | SF-268 > 100 µM

CC1(CCCO)CCCCCC(C)(CCCO)C1=O (stereo not given)
inactive: K562 > 100 µM | U-251 > 100 µM | A498 > 100 µM | SK-MEL-2 > 100 µM | M14 > 100 µM | Malme-3M > 100 µM | CAKI-1 > 100 µM | OVCAR-4 > 100 µM | DU-145 > 100 µM | LOX IMVI > 100 µM | HOP-92 > 100 µM | SK-MEL-5 > 100 µM | HL-60 > 100 µM | UO-31 > 100 µM | ACHN > 100 µM | SR > 100 µM | MDA-N > 100 µM | RPMI-8226 > 100 µM | HOP-62 > 100 µM | SF-268 > 100 µM
